Blank lines part the entries; values can stand above or below the compound they belong to.
What was measured:
[1] = biological target: T1, Orexin/Hypocretin receptor type 1 (Homo sapiens) (UniProt O43613); experiment: Binding affinity towards orexin receptor type 1.
T1 sequence (whole entry): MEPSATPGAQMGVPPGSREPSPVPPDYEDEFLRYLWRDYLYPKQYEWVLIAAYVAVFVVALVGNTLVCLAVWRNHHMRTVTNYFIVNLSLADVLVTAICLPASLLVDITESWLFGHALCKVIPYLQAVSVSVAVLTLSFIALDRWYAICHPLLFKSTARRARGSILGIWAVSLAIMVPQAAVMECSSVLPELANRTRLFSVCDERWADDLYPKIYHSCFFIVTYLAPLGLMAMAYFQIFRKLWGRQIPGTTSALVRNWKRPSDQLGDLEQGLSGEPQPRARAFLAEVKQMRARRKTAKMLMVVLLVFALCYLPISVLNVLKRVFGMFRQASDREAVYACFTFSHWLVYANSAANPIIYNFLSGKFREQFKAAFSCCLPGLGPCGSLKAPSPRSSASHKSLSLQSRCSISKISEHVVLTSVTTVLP

[2] = biological target: 5-hydroxytryptamine receptor 2B (Homo sapiens, UniProt P41595); experiment: Binding affinity against 5-hydroxytryptamine 2B receptor
Chain of 5-hydroxytryptamine receptor 2B (P41595 whole entry, the tested form may be a part): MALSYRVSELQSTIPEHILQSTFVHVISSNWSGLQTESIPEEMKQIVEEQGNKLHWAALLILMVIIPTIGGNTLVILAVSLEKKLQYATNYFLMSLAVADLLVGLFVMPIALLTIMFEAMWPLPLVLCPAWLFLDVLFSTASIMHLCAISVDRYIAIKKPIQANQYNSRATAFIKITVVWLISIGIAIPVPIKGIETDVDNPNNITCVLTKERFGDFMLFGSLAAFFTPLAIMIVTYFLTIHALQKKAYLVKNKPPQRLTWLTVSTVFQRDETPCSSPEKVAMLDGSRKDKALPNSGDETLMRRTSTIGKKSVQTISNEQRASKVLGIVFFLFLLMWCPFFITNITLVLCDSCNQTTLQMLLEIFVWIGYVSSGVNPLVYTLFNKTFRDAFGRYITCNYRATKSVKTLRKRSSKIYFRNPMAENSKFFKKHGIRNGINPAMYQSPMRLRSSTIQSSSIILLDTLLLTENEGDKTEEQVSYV

[3] = Compound was tested in vivo for steady state brain-blood ratio after intravenous infusion of 1.8 mg/kg/h free base drug for 12h.; format: functional
[4] = Half life was evaluated in vivo after intraperitoneal administration; details: ip
[5] = Brain level determined after 4 hr from a bolus 10 mg/kg ip dosing; format: functional; details: route intraperitoneal
[6] = biological target: T2, 5-hydroxytryptamine receptor 2C (Homo sapiens, UniProt P28335); experiment: Binding affinity against 5-hydroxytryptamine 2C receptor
T2 sequence (P28335 whole entry): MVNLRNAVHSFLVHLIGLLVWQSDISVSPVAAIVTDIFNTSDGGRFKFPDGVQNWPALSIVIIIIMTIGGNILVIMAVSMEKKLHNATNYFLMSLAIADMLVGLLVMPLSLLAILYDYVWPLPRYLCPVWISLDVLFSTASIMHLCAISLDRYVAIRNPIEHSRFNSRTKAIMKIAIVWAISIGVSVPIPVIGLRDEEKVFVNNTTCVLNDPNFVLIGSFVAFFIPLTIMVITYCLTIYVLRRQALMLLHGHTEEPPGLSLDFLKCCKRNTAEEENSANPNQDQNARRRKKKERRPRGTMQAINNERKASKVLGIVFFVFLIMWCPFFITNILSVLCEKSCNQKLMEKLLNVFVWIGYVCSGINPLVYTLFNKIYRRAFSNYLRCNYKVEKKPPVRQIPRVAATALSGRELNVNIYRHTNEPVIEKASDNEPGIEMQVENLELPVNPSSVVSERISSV

in vivo = details: eutheria, po
[7] = Brain level determined after 2 hr from ip bolus dosing of 10 mg/kg; format: functional; details: route intraperitoneal
[8] = Steady state concentration was evaluated; format: ADME
[9] = biological target: T3, Orexin receptor type 2 (Homo sapiens) (UniProt O43614)
T3 sequence (whole entry): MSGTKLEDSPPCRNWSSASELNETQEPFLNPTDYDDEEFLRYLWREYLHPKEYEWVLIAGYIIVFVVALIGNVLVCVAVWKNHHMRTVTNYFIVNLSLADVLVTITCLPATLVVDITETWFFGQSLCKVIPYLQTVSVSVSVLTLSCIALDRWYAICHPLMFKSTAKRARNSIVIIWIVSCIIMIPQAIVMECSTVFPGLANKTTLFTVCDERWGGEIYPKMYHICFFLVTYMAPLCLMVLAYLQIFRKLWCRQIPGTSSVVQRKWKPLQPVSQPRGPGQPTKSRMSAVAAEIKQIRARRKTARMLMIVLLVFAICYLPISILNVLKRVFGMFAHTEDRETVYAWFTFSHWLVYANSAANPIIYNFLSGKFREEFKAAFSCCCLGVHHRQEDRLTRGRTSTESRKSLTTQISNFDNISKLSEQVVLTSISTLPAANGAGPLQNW
Description: Compound was evaluated for its binding affinity towards Orexin receptor type 2

Structure (SMILES): Cn1ccc2cc(NC(=O)Nc3ccnc4cccnc34)ccc21
pKb [1]: 7.3

Structure (SMILES): Cc1nc2ccc(NC(=O)Nc3ccnc4cccnc34)cc2o1
Ki [2]: 3980 nM | Ratio [3]: 0.4 | pKb [1]: 7.4 | half-life [4]: 24 min | Brain level [5]: <30 nM | Ki [6]: > 5010 nM | bioavailability (in vivo): 10% | Brain level [7]: 3.8 µM | Css [8]: 490 nM | pKb [9]: 5.7

Structure (SMILES): O=C(Nc1ccc2c(c1)OCCCO2)Nc1ccnc2ccccc12
pKb [1]: 7.4

Structure (SMILES): Cn1ccc2cc(NC(=O)Nc3ncnc4ccccc34)ccc21
pKb [1]: < 6.3

Structure (SMILES): Cc1nc2ccc(NC(=O)Nc3ccnc4ccccc34)cc2o1
Ki [2]: 631 nM | pKb [1]: 7.7 | Ki [6]: 631 nM

Structure (SMILES): Cc1nc2ccc(NC(=O)Nc3ccnc4ncccc34)cc2o1
pKb [1]: 6.5

Structure (SMILES): Cn1ccc2cc(NC(=O)Nc3ccncc3)ccc21
pKb [1]: < 5

Structure (SMILES): CN1CCc2cc(NC(=O)Nc3ccnc4ccccc34)ccc21
Ki [2]: 12.6 nM | pKb [1]: 7.6 | Ki [6]: 50.1 nM

Structure (SMILES): Cn1ccc2cc(NC(=O)Nc3cccc4ccccc34)ccc21
pKb [1]: < 6.3

Structure (SMILES): O=C(Nc1ccc(N2CCCC2)cc1)Nc1ccnc2ccccc12
pKb [1]: 6.4

Structure (SMILES): CN(C)c1ccc(NC(=O)Nc2ccnc3ccccc23)cc1Cl
pKb [1]: 7.4

Structure (SMILES): CSc1ccc(NC(=O)Nc2ccnc3cccnc23)cc1
pKb [1]: 7.5

Structure (SMILES): Cc1nc2ccc(NC(=O)Nc3ccnc4ccncc34)cc2o1
pKb [1]: 5.9

Structure (SMILES): COc1ccc(NC(=O)Nc2ccnc3ccccc23)cc1OC
pKb [1]: < 6.3

Structure (SMILES): O=C(Nc1ccc2c(ccn2Cc2ccccc2)c1)Nc1ccnc2ccccc12
pKb [1]: < 6.1

Structure (SMILES): Cc1cc2cc(NC(=O)Nc3ccnc4ccccc34)ccc2n1C
Ki [2]: 3.98 nM | Ki [6]: 79.4 nM

Now from value to compound, other results behind:

pKb [1]: 6.6
Structure (SMILES): COc1cccc(NC(=O)Nc2ccnc3ccccc23)c1

pKb [1]: < 6.2
Structure (SMILES): O=C(Nc1ccc2ocnc2c1)Nc1ccnc2ccccc12

pKb [1]: < 6.1
Structure (SMILES): O=C(Nc1ccccc1)Nc1ccnc2ccccc12

Ki [2]: 2.51 nM | pKb [1]: 7.5 | Ki [6]: 25.1 nM
Structure (SMILES): Cn1ccc2cc(NC(=O)Nc3ccnc4ccccc34)ccc21

Ki [2]: 79.4 nM | pKb [1]: 7.8 | Ki [6]: 126 nM | Css [8]: 4200 nM
Structure (SMILES): CN(C)c1ccc(NC(=O)Nc2ccnc3ccccc23)cc1
Ratio [3]: 0.06

Ki [2]: 15.8 nM | Ki [6]: 50.1 nM
Structure (SMILES): COc1ccc(NC(=O)Nc2ccnc3ccccc23)cc1Cl

pKb [1]: 6.4
Structure (SMILES): O=C(Nc1cccc(Cl)c1)Nc1ccnc2ccccc12

pKb [1]: 7
Structure (SMILES): O=C(Nc1ccc2ncoc2c1)Nc1ccnc2ccccc12

Ki [2]: 31.6 nM | pKb [1]: 7.9 | Ki [6]: 31.6 nM | Css [8]: 1000 nM
Structure (SMILES): CSc1ccc(NC(=O)Nc2ccnc3ccccc23)cc1
Ratio [3]: 0.1

pKb [1]: 6.1
Structure (SMILES): CN(C)c1cccc(NC(=O)Nc2ccnc3ccccc23)c1

pKb [1]: < 6.2
Structure (SMILES): N#Cc1ccc(NC(=O)Nc2ccnc3ccccc23)cc1

pKb [1]: < 6.1
Structure (SMILES): Nc1ccc(NC(=O)Nc2ccnc3ccccc23)cc1

Ki [2]: 50.1 nM | pKb [1]: 7.4 | Ki [6]: 31.6 nM | Css [8]: 700 nM
Structure (SMILES): CCN(CC)c1ccc(NC(=O)Nc2ccnc3ccccc23)cc1
Ratio [3]: 0.16

pKb [1]: 6.2
Structure (SMILES): O=C(Nc1ccc2[nH]ccc2c1)Nc1ccnc2ccccc12

pKb [1]: 6.8
Structure (SMILES): COc1ccc(NC(=O)Nc2ccnc3ccccc23)cc1
